US20190142949A1, “COVALENT CONJUGATES” (GLAXOSMITHKLINE INTELLECTUAL PROPERTY DEVELOPMENT LIMITED, priority 2015, published 2019)

Legend:
[1] = system: LPS induced MCP-1 production from human whole blood; assay: LPS induced MCP-1 production from human whole blood; format: cell-based; settings: LPS 200 ng/mL, 18-24 hours, read-out: pIC50, LPS induced MCP-1 production (converted)
Experimental: Activation of monocytic cells by agonists of toll-like receptors such as bacterial lipopolysaccharide (LPS) results in production of key inflammatory mediators including MCP-1. Such pathways are widely considered to be central to the pathophysiology of a range of auto-immune and inflammatory disorders. Blood is collected in a tube containing Sodium heparin (Leo Pharmaceuticals) (10 units of heparin/mL of blood). 96-well compound plates containing 1 μL test sample in 100% DMSO were prepared (two replicates on account of donor variability). 130 μL of whole blood was dispensed into each well of the 96-well compound plates and incubated for 30 min at 37° C., 5% CO2. 10 μL of lipopolysaccharide (from Salmonella typhosa; L6386) made up in PBS (200 ng/mL final assay concentration) was added to each well of the compound plates. The plates were then placed in the humidified primary cell incubator for 18-24 hours at 37° C., 5% CO2. 140 μL of PBS was added to all wells of the compound plates containing blood. The plates were then sealed and centrifuged for 10 mins at 2500 rpm. […] 150 μL of 2×MSD Read Buffer T (stock 4×MSD Read Buffer T was diluted 50:50 with de-ionised water) was then added to each well and the plates read on the MSD Sector Imager 6000. Concentration response curves for each compound were generated from the data and an IC50 value was calculated.

[2] = target: T1, Bromodomain BRD4 Binding Domain 1 (BD1) [BRD4 (Y390A)] (Homo sapiens, UniProt O60885, Y390A); assay: TR-FRET binding assay, Bromodomain BRD4 BD1 mutant assay; settings: for IC50: TR-FRET, BRD4 (Y390A) 10 nM, Alexa Fluor647 ligand at Kd, read-out: pIC50 in the BRD4 BD1 assay (converted)
T1 construct: made in house; host or cells: E. coli (pET15b vector)
Experimental: Binding was assessed using a time resolved fluorescent resonance energy transfer binding assay. This utilises a 6 His purification tag at the N-terminal of the proteins as an epitope for an anti-6 His antibody labeled with Europium chelate (PerkinElmer AD0111) allowing binding of the Europium to the proteins which acts as the donor fluorophore. A small molecule, high affinity binder of the bromodomain BRD4 has been labeled with Alexa Fluor647 (Reference Compound X) and this acts as the acceptor in the FRET pair.
In the absence of a competing compound, excitation of the Europium causes the donor to emit at λ618 nm which excites the Alexa labelled bromodomain binding compound leading to an increased energy transfer that is measurable at λ647 nM. In the presence of a sufficient concentration of a compound that can bind these proteins, the interaction is disrupted leading to a quantifiable drop in fluorescent resonance energy transfer.
The binding of Examples 1 to 11 to Bromodomain BRD4 was assessed using mutated proteins to detect differential binding to Binding Domain 1 (BD1) on the bromodomain. These single residue mutations in the acetyl lysine binding pocket greatly lower the affinity of the fluoroligand (Reference Compound X) for the mutated domain (>1000 fold selective for the non-mutated domain). Therefore in the final assay conditions, binding of the fluoroligand to the mutated domain cannot be detected and subsequently the assay is suitable to determine the binding of compounds to the single non-mutated bromodomain.
Recombinant Human Bromodomain [BRD4 (Y390A)] was expressed in E colicells (pET15b vector) with a 6-His tag at the N-terminal. […]
All assay components were dissolved in buffer composition of 50 mM HEPES pH7.4, 50 mM NaCl, 5% Glycerol, 1 mM DTT and 1 mM CHAPS. […] Plates were then read on the Envision platereader, (λex=317 nm, donor λem=615 nm; acceptor λem=665 nm; Dichroic LANCE dual). Time resolved fluorescent intensity measurements were made at both emission wavelengths and the ratio of acceptor/donor was calculated and used for data analysis. […]

Compound | IC50 [1] | IC50 [2] | selectivity of the fluoroligand for the non-mutated domain over the mutated domain ([2]; single residue mutations in the acetyl lysine binding pocket)
Cc1cc(-c2nc3cc(CN[C@@H](CC(C)C)C(=O)OC4CCCC4)ccc3n2CC2CCOCC2)c[nH]c1=O [Example 3, (S)-cyclopentyl 4-methyl-2-(((2-(5-methyl-6-oxo-1,6-dihydropyridin-3-yl)-1-((tetrahydro-2H-pyran-4-yl)methyl)-1H-benzo[d]imidazol-5-yl)methyl)amino)pentanoate] | 79.4 nM | 794 nM | 
Cc1cc(-c2nc3ccccc3n2CC2CCOCC2)c[nH]c1=O [Example 10, 3-methyl-5-(1-((tetrahydro-2H-pyran-4-yl)methyl)-1H-benzo[d]imidazol-2-yl)pyridin-2(1H)-one] | 2510 nM | 398 nM | 
COc1ccc2c(c1)C(c1ccc(Cl)cc1)=N[C@@H](CC(=O)NCCCCCNC(=O)CCCCCC1(C)/C(=C/C=C/C=C/C3=[N+](CCCCS(=O)(=O)O)c4ccc(S(=O)(=O)O)cc4C3(C)C)N(CCCCS(=O)(=O)[O-])c3ccc(S(=O)(=O)O)cc31)c1nnc(C)n1-2 (some centres unmarked) [Reference Compound X, reference compound] |  |  | > 1000 fold
